EP0677293A1, “PHARMACEUTICAL USE OF TERPYRIDINE DERIVATIVE” (priority 1992, dated 1994)
Like-named read-outs stand apart in the source and are kept apart here.

Legend:
[1] = system: Astroglial cells derived from the mouse forebrain; test: Synthesis-stimulating activity on NGF (NGF level in culture medium by enzyme immunoassay); type: cell-based; conditions: Mus musculus, 24 h; for fold induction at 2 µg/mL / fold induction at 50 µg/mL: read-out: Synthesis-Stimulating Activity on NGF
Method: The activity of accelerating secretion of NGF was evaluated by the following method.
Each compound shown in Table 1 was dissolved in dimethylsulfoxide (DMSO) to adjust the concentration in the range of 2 mg/ml to 10 mg/ml.
Astroglial cells derived from the mouse forebrain (cells that synthesize and secrete NGF)
Astroglial cells obtained from the mouse forebrain were cultured into 8 x 10⁵ cells/ml in Dulbecco's modified Eagle's medium obtained from Gibco, glucose-rich, containing 20% fetal calf serum, 100 units/ml of penicillin and 100 µg/ml of streptomycin. A 0.1 ml/well aliquot was inoculated on a 96-well plate obtained from Falcon and having an area of 0.32 cm² per well and cultured at 37°C in an atmosphere of 5% CO₂. The culture medium was removed 72 hours later and instead, a 0.1 ml/well aliquot of fresh Dulbecco's modified Eagle's medium containing 0.5% bovine albumin powders obtained from Armour, 100 units/ml of penicillin and 100 µg/ml of streptomycin was supplemented to the system followed by culturing at 37°C in 5% CO₂. The above medium containing the compound each having various concentrations was exchanged 72 hours later. For the purpose of comparison, the medium which contains only DMSO was also prepared (control).
The synthesis-stimulating activity on NGF by the compound of the present invention is shown in terms of a ratio when the NGF level in the control containing only DMSO was made 1.0.

[2] = system: Cerebral cortical neuronal cells from an 18-day-old rat embryo; test: Test on neurotrophic activity (living cells counted by fluorescein diacetate fluorescence, with or without hypoxic load); type: cell-based
Method: The neurotrophic activity was determined by the following method. Each compound was dissolved in DMSO to adjust the concentration in the range of 2 mg/ml to 10 mg/ml. Cerebral cortical neuronal cells from an 18-day-old rat embryo […] After 24 hours of incubation, the culture medium was removed and a 0.5 ml/well aliquot of a serum-free fresh DF medium containing the respective compounds having various concentrations, 5 µg/ml of transferrin, 5 µg/ml of insulin and 20 pmoles/ml of progesterone was supplemented to the system. For the purpose of comparison, the medium containing only DMSO was added was also prepared. At this stage, the two same plates were used. After 72 hours of incubation in various medium, hypoxia was loaded on one plate by reducing the concentration of oxygen to the minimum concentration of 1% using a N₂-O₂-CO₂ incubator (manufactured by Tabai, Model BNP-100) and culturing for 4 hours under the conditions. Another plate was cultured in an atmosphere of 5% CO₂ and 95% air, without hypoxic load. After the incubation was continued for further 48 hours, living cells were counted. The culture medium was removed and fluorescein diacetate (FDA) reagent was reacted. After washing with phosphate buffer, pH 7.4, the fluorescent intensity (E x 485/Em 530) was measured by CytoFlour^TM 2300, manufactured by Millipore.

[3] = 2 µg/ml, ratio to DMSO control = 1.0, 24 hours
[4] = 50 µg/ml, ratio to DMSO control = 1.0, 24 hours
[5] = no hypoxic load, ratio of fluorescent intensity to DMSO control = 1.0, read-out: Neurotrophic Activity No Hypoxic Load
[6] = 4 h, hypoxic load (1% oxygen, 4 hours), ratio of fluorescent intensity to DMSO control = 1.0, read-out: Neurotrophic Activity Hypoxic Load

Structure (SMILES)	fold induction at 2 µg/mL [1, 3]	fold induction at 10 µg/mL ([1]; ratio to DMSO control = 1.0)	fold induction at 50 µg/mL [1, 4]	fold induction at 20 µg/mL ([1]; ratio to DMSO control = 1.0)	fold induction at 100 µg/mL ([1]; ratio to DMSO control = 1.0)	viability at 2 µg/mL [2, 5]	viability at 2 µg/mL [2, 6]	viability at 10 µg/mL [2, 5]	viability at 10 µg/mL [2, 6]	further results
CCc1ccc(-c2cc(-c3ccccn3)nc(-c3ccccn3)c2)cc1 [Compound 7, 4'-(4-Ethylphenyl)-2,2':6',2''-terpyridine]	2.9	1	1.2							
O=[N+]([O-])c1cccc(-c2cc(-c3ccccn3)nc(-c3ccccn3)c2)c1 [Compound 17, 4'-(3-Nitrophenyl)-2,2':6',2''-terpyridine]				1	2.8					
Cc1cccc(-c2cc(-c3ccccn3)nc(-c3ccccn3)c2)c1 [Compound 4, 4'-(3-Methylphenyl)-2,2':6',2''-terpyridine]	1.8	1.3	1.2			170%	180%			
c1ccc(-c2cc(-c3ccccn3)nc(-c3ccccn3)c2)cc1 [Compound 2, 4'-Phenyl-2,2':6',2''-terpyridine]				2.6	2.2	180%	170%	130%	50%	
CCCCCCCCCc1cc[n+](Cc2ccc(-c3cc(-c4ccccn4)nc(-c4ccccn4)c3)cc2)cc1 [Compound 26, 4-Nonyl-1-[4-(2,2':6',2''-terpyridin-4'-yl)phenylmethyl]pyridinium bromide]				3	3	160%	140%	140%	130%	
CCCCCCCCC(CCCCCCCC)c1cc[n+](Cc2ccc(-c3cc(-c4ccccn4)nc(-c4ccccn4)c3)cc2)cc1 [Compound 28, 4-(1-Octylnonyl)-1-[4-(2,2':6',2''-terpyridin-4'-yl)phenylmethyl]pyridinium bromide]				3.6	2.5	260%	310%	130%	380%	
c1ccc(-c2cc(-c3ccc(Cn4cccc4)cc3)cc(-c3ccccn3)n2)nc1 [Compound 22, 4'-[4-(1-pyrrorylmethyl)phenyl]-2,2':6',2''-terpyridine]	1.7	1.1				120%	100%	170%	180%	
CCOc1ccc(-c2cc(-c3ccccn3)nc(-c3ccccn3)c2)cc1 [Compound 14, 4'-(4-Ethoxyphenyl)-2,2':6',2''-terpyridine]	2.1	4.8	2.9							
c1ccc(-c2cccc(-c3ccccn3)n2)nc1 [Compound 1]						270%	140%	320%	220%	fold induction at 1 µg/mL ([1]; 1 µg/ml, ratio to DMSO control = 1.0): 2.3; fold induction at 5 µg/mL ([1]; ratio to DMSO control = 1.0): 3.5
CCCCCCCCCCCC[N+](C)(C)Cc1ccc(-c2cc(-c3ccccn3)nc(-c3ccccn3)c2)cc1 [Compound 24, N-Dodecyl-N,N-dimethyl-N-[4-(2,2':6',2''-terpyridin-4'-yl)phenylmethyl]ammonium bromide]						200%	190%			fold induction at 2 µg/mL [1]: 2.1; fold induction at 50 µg/mL [1]: 1
CC(C)c1ccc(-c2cc(-c3ccccn3)nc(-c3ccccn3)c2)cc1 [Compound 8, 4'-(4-Isopropylphenyl)-2,2':6',2''-terpyridine]	1.7	3.2	2.4							
CCCCCCCCCCCCCCCCCc1cc[n+](Cc2ccc(-c3cc(-c4ccccn4)nc(-c4ccccn4)c3)cc2)cc1 [Compound 27, 4-Heptadecyl-1-[4-(2,2':6',2''-terpyridin-4'-yl)phenylmethyl]pyridinium bromide]				1	1.2	200%	150%	190%	200%	
O=C(O)c1ccc(-c2cc(-c3ccccn3)nc(-c3ccccn3)c2)cc1 [Compound 19, 4-(2,2':6',2''-Terpyridin-4'-yl)benzoic acid]	2.4	2.4	3.6							
Clc1ccc(-c2cc(-c3ccccn3)nc(-c3ccccn3)c2)cc1 [Compound 11, 4'-(4-Chlorophenyl)-2,2':6',2''-terpyridine]			2.2			170%	160%	130%	140%	fold induction at 5 µg/mL ([1]; ratio to DMSO control = 1.0): 4.7; fold induction at 17 µg/mL ([1]; 17 µg/ml, ratio to DMSO control = 1.0): 3.4
Oc1ccccc1-c1cc(-c2ccccn2)nc(-c2ccccn2)c1 [Compound 12, 2-(2,2':6',2''-Terpyridin-4'-yl)phenol]				3.7	3					
c1cc[n+](Cc2ccc(-c3cc(-c4ccccn4)nc(-c4ccccn4)c3)cc2)cc1 [Compound 25, 1-[4-(2,2':6',2''-Terpyridin-4'-yl)phenylmethyl]pyridinium bromide]	1.2	1.1	2.9			140%	110%			
COc1ccc(-c2cc(-c3ccccn3)nc(-c3ccccn3)c2)cc1 [Compound 13, 4'-(4-Methoxyphenyl)-2,2':6',2''-terpyridine]				1.7	1.8	180%	70%			
Cc1ccccc1-c1cc(-c2ccccn2)nc(-c2ccccn2)c1 [Compound 3, 4'-(2-Methylphenyl)-2,2':6',2''-terpyridine]	1.5	2.9				240%	280%	150%	140%	
BrCc1ccc(-c2cc(-c3ccccn3)nc(-c3ccccn3)c2)cc1 [Compound 21, 4'-(4-Bromomethylphenyl)-2,2':6',2''-terpyridine]				2.7	5.2	140%	200%			
C[N+](C)(C)Cc1ccc(-c2cc(-c3ccccn3)nc(-c3ccccn3)c2)cc1 [Compound 23, N,N,N-Trimethyl-N-[4-(2,2':6',2''-terpyridin-4'-yl)phenylmethyl]ammonium bromide]		3.2			1.3	250%	300%	130%	160%	fold induction at 30 µg/mL ([1]; ratio to DMSO control = 1.0): 5.6
OCCOc1ccc(-c2cc(-c3ccccn3)nc(-c3ccccn3)c2)cc1 [Compound 15, 2-[4-(2,2':6',2''-Terpyridin-4'-yl)phenoxy]ethanol]				1.7	4.2					
Nc1cccc(-c2cc(-c3ccccn3)nc(-c3ccccn3)c2)c1 [Compound 18, 4'-(3-Aminophenyl)-2,2':6',2''-terpyridine]		5.7			4.6	110%	140%			fold induction at 30 µg/mL ([1]; ratio to DMSO control = 1.0): 2
